Values quoted from earlier work as cited in patent publication US7858126B2 (Trinity Laboratories Inc., priority 2006, dated 2010).

Experiments:
skin papillomas = conditions: mice, DMBA-initiated, TPA-promoted
[1] = tested on: ornithine decarboxylase (ODC); conditions: mice

## santalol
Skin papillomas
  decrease of papilloma incidence: 67%
  decrease of papilloma multiplicity: 96%
[1]
  decrease of TPA-induced ODC activity: 70%
